Reference: ChEMBL document CHEMBL1201862, “PubChem BioAssay data set” (2004)
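The compound was tested at five concentrations on cells cultured in 96-well plates, with a 48-hour exposure period. Here, GI50 denotes the concentration required for 50% inhibition of growth.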 Calls of active or inactive are those of the source. Cut-off read from the data, not from the text of the source: active = GI50 up to about 1.1 µM and inactive = higher.

Key:
Assay in all cases: NCI anticancer screen, dose series, 48 h
NCI-H522 = system: NCI-H522
OVCAR-5 = system: OVCAR-5
SR = system: SR
SN12C = system: SN12C
CAKI-1 = system: CAKI-1
HOP-92 = system: HOP-92
NCI/ADR-RES = system: NCI/ADR-RES
DU-145 = system: DU-145
TK-10 = system: TK-10
HCC 2998 = system: HCC 2998
OVCAR-8 = system: OVCAR-8
SF-295 = system: SF-295
OVCAR-3 = system: OVCAR-3
UACC-62 = system: UACC-62
U-251 = system: U-251
OVCAR-4 = system: OVCAR-4
NCI-H460 = system: NCI-H460
SW-620 = system: SW-620
MDA-N = system: MDA-N
HOP-62 = system: HOP-62

| Structure (SMILES) | GI50 (NCI-H522) | GI50 (OVCAR-5) | GI50 (SR) | GI50 (SN12C) | GI50 (CAKI-1) | GI50 (HOP-92) | GI50 (NCI/ADR-RES) | GI50 (DU-145) | GI50 (TK-10) | GI50 (HCC 2998) | GI50 (OVCAR-8) | GI50 (SF-295) | GI50 (OVCAR-3) | GI50 (UACC-62) | GI50 (U-251) | GI50 (OVCAR-4) | GI50 (NCI-H460) | GI50 (SW-620) | GI50 (MDA-N) | GI50 (HOP-62) |
| --- | --- | --- | --- | --- | --- | --- | --- | --- | --- | --- | --- | --- | --- | --- | --- | --- | --- | --- | --- | --- |
| CC(C)(O)c1cc2c(cc1C(C)(C)O)-c1ccccc1-2 | > 100 µM (inactive) | > 100 µM (inactive) | > 100 µM (inactive) | > 100 µM (inactive) | > 100 µM (inactive) | 17.9 µM (inactive) | > 100 µM (inactive) | > 100 µM (inactive) | > 100 µM (inactive) | > 100 µM (inactive) | > 100 µM (inactive) | 67.1 µM (inactive) | > 100 µM (inactive) | 36.2 µM (inactive) | > 100 µM (inactive) | > 100 µM (inactive) | > 100 µM (inactive) | > 100 µM (inactive) |  |  |
| COc1ccc(C2=CN3CCC[C@H]3C=C2c2cc(O)c(OC)c(OC)c2)cc1OC | 0.00418 µM (active) | 0.00561 µM (active) | 0.00394 µM (active) | 0.00403 µM (active) | 0.00382 µM (active) | 0.0038 µM (active) |  | 0.00398 µM (active) | 0.00859 µM (active) | 0.00482 µM (active) | 0.00377 µM (active) | 0.00446 µM (active) | 0.00615 µM (active) | 0.00405 µM (active) | 0.00416 µM (active) | 0.00286 µM (active) | 0.00316 µM (active) | 0.00337 µM (active) | 3.37 nM (active) | 0.0065 µM (active) |
| CCN(CC)/N=N/c1c(C(N)=O)n[nH]c1C | 65.2 µM (inactive) |  |  | 40.6 µM (inactive) | 17.9 µM (inactive) | 11.3 µM (inactive) | 48.5 µM (inactive) | 69.5 µM (inactive) | > 100 µM (inactive) | > 100 µM (inactive) | 49.4 µM (inactive) | 38.1 µM (inactive) | > 100 µM (inactive) | 35 µM (inactive) | 59 µM (inactive) | > 100 µM (inactive) | 31.2 µM (inactive) | 71.3 µM (inactive) |  | 31.2 µM (inactive) |
| COC(=O)/C(=N\NC(C)(C)C)C(C(=O)OC)C(=O)C(=O)Nc1cc(Cl)ccc1Cl (stereo unspecified) | > 100 µM (inactive) | > 100 µM (inactive) | > 100 µM (inactive) | > 100 µM (inactive) | > 100 µM (inactive) | > 100 µM (inactive) |  |  | > 100 µM (inactive) | > 100 µM (inactive) | > 100 µM (inactive) | > 100 µM (inactive) | > 100 µM (inactive) | > 100 µM (inactive) | > 100 µM (inactive) | > 100 µM (inactive) | > 100 µM (inactive) | > 100 µM (inactive) |  | > 100 µM (inactive) |
